The test system of data set [1] is STZ-induced diabetic rats. The experiment in a line: In vivo hypoglycemic effect. The arrangement: species or system Wistar rats. Conditions: subcutaneous injection, 5 IU kg^−1.
The test system of data set [2] is STZ-induced diabetic rats. The experiment in a line: In vivo oral glucose tolerance test (OGTT). More on the design: species or system Wistar rats. The conditions noted are these: glucose 2.5 g·kg^−1 by gavage 3 hours after treatment, 280 minutes; SC 5 IU·kg^−1 or oral 50 IU·kg^−1.
For a further data set, the system named is Hep-G2 cells. The experiment in a line: Insulin-FITC internalization in cells by confocal microscopy. Conditions: 4 h incubation, [Insulin-FITC]=10 μM. In kind it is cell-based, human.
In another data set the test system is R-HepG2 cells. The experiment in a line: Glucose consumption assay in insulin-resistant cells. In kind it is cell-based, human. Conditions: R-HepG2, [Insulin]=10 μM.
Data set [3] relates to STZ-induced diabetic rats. Conditions: SC insulin 5 IU·kg^−1 or oral TTA-DFP-nCOF/Insulin 50 IU·kg^−1.
Data set [4] deals with STZ-induced diabetic rats. The conditions noted are these: rat, in vivo.
For data set [5], the system named is non-everted mouse small intestine sac. The conditions noted are these: pure insulin; cited from earlier work.

Regarding insulin, in data set [1], the “persistence of the blood glucose reduction” value is reported as “the effect was not sustained” and the “time to marked reduction of the blood glucose level” value was no more than 1 h. Further, in data set [2], the “glycaemia in OGTT” value is listed as “decreases severely the glucose plasma level the two first hours after the glucose gavage”. Also, the “intracellular insulin-FITC signal / localization” value in the data set with Hep-G2 cells was “no detectable intracellular insulin-FITC signal”. Further, the “change of cellular glucose metabolism after 4 h” value with R-HepG2 cells (t=4 h) is given as “transient increase in cellular glucose metabolism”. Further, in the data set with R-HepG2 cells (t=24 h), the “change of cellular glucose metabolism / insulin resistance after 24 h” value is “statistically significant worsening”. In data set [3], the HOMA-IR was 0.6 (0.3) and the HOMA-IS is reported as 50.4 (11.0). In addition, in data set [4], the “histopathology of liver and kidney” value was “commonly observed damages to the liver and kidney”; the “histopathology of the kidney” value is “increase of the size of Bowman capsules, hypertrophy of the glomeruli and necrosis of the tubules”; the “histopathology of the liver” value is “increase of big hepatocytes, a necrosis of hepatocytes and a narrowing in the sinusoids”. Further, the “Permeability (reported value)” value in data set [5] is given as 8.02 μg·cm^−2.

The values above are taken from patent publication US20240238213A1 (New York University in Abu Dhabi Corporation, priority 2021, published 2024).
